Source: US20050164951A1, “Inhibitors for the soluble epoxide hydrolase” (The Regents of the University of California, priority 2003, published 2005)
Where two headings read alike, the source gives them in different places.

Legend:
[1] = Effect of compound 950 and of Norvasc on blood pressure; assay type: in vivo; conditions: 950 0.05 mg/Kg per day
human sEH = target: T1, human sEH (Homo sapiens, UniProt P34913); assay: Inhibition of recombinant human sEH, IC50 assay with 4-nitrophenyl-trans-2,3-epoxy-3-phenylpropyl carbonate as substrate; assay type: biochemical
T1 construct: made in house; host or cells: baculovirus expression system
T1 sequence (P34913 1-555): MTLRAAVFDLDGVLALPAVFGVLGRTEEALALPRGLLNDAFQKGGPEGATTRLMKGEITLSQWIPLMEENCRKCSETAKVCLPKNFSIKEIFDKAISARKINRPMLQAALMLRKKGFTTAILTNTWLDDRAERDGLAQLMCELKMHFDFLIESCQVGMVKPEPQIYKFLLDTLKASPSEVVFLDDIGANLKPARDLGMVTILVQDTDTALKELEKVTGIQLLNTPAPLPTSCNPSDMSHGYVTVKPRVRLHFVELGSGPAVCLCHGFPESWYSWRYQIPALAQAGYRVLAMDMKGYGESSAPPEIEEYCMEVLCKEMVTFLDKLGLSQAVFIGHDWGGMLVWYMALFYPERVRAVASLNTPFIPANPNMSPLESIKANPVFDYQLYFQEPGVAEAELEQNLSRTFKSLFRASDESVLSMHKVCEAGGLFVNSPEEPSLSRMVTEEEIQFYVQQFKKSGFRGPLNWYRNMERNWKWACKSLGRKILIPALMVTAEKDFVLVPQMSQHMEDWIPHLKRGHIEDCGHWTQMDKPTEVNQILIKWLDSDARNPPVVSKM
Method: (§1) Assays were performed in triplicate. […] The curve was generated from at least three separate runs, each in triplicate, to obtain the standard deviation (SD) given in Table 1 thru Table 4.

mouse sEH = target: T2, mouse sEH (Mus musculus, UniProt P34914); assay: Inhibition of recombinant mouse sEH, IC50 assay with 4-nitrophenyl-trans-2,3-epoxy-3-phenylpropyl carbonate as substrate; assay type: biochemical; conditions: read-out: IC50 (μM) Mouse sEH
T2 construct: made in house; host or cells: baculovirus expression system
T2 sequence (P34914 1-554): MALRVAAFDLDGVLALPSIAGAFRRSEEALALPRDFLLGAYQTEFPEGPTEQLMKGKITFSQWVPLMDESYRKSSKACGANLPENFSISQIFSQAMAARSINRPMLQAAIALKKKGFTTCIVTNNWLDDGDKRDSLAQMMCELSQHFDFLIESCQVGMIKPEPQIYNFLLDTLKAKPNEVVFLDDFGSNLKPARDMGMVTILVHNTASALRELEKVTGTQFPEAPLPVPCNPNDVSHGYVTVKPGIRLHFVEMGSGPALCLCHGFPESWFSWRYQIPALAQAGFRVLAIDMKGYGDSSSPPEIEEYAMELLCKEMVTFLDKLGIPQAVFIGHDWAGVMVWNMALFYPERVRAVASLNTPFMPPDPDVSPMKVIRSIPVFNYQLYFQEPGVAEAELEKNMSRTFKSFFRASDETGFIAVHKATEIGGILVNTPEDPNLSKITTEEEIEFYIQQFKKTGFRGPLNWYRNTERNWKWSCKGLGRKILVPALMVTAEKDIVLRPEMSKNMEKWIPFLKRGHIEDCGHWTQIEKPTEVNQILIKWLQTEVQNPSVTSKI
Method: as §1

mouse and human sEH = assay: sEH IC50 assay, comparisons of the text made for both enzymes or without naming the enzyme; assay type: biochemical
Method: as §1

Water solubility = assay type: physicochemical; conditions: for water solubility: compared with non-functionalized lipophilic inhibitors (791, 790); for solubility relative to the corresponding cyclohexyl derivative: 772 vs. 789, 791 vs. 790, 297 vs. 686
rat sEH = target: T3, rat sEH (Rattus norvegicus, UniProt P80299); assay: Relative turnover of arachidonic acid epoxides by rat sEH; assay type: biochemical; conditions: for relative substrate turnover of the epoxy arachidonates: 1:1:2 mixture of 8,9-, 11,12-, and 14,15-EET hydrolyzed to 30% by rat renal cortex cytosol; for Relative EET Turnover: Table 20, arachidonic acid epoxides with the rat sEH
T3 construct: was hydrolyzed to 30% by rat renal cortex cytosol; from tissue; host or cells: rat renal cortex cytosol
T3 sequence (P80299 1-554): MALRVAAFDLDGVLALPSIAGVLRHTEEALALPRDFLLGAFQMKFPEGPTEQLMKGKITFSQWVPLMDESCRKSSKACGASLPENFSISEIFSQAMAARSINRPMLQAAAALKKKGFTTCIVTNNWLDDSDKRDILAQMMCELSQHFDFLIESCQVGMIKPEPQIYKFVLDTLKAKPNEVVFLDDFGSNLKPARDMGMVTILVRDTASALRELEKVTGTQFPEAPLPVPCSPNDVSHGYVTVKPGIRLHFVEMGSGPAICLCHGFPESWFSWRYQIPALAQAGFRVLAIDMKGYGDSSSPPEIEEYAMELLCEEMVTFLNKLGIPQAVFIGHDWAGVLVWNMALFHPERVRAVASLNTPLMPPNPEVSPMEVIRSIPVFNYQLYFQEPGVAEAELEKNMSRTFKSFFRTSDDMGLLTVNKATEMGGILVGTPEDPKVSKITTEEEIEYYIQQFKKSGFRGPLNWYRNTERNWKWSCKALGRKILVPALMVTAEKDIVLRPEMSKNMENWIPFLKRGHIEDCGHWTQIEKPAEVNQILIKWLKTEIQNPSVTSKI
Method: For epoxy fatty acid hydrolysis, the soluble epoxide hydrolase prefers substrates with epoxide moieties that are more distant from the carboxyl terminal. Specifically the substrate preference decreases in the order of 14,15-EET >11,12-EET >8,9-EET >>>5,6-EET for the epoxides of arachidonic acid. Independently, the relative substrate turnover of the epoxy arachidonates were calculated at 0.1:8.1:14.3 when a 1:1:2 mixture of 8,9-, 11,12-, and 14,15-EET fatty acid was hydrolyzed to 30% by rat renal cortex cytosol. By considering the primary pharmacophore of the urea to be a transition-state analog of epoxide hydrolysis, preferred inhibitors have now been developed which incorporate long aliphatic acids. These compounds are better substrate and transition state mimics than those incorporating shorter aliphatic acids. Accordingly, optimal soluble epoxide hydrolase inhibitors can be obtained by producing compounds with aliphatic acid substituents (i.e. a tertiary pharmacophore) which are separated from the primary pharmacophore by an equivalent distance as the terminal acid is separated from the epoxide in optimal substrates. Within the enzyme active site, epoxy fatty acids have been predicted to exist in an extended or pseudo-linear confirmation. Therefore, both the epoxy fatty acids and the aliphatic acid containing urea structures were approximated as two dimensional linear representations and measurements were made on each species. The critical measurements taken were distances (in angstroms) from the carboxylate hydroxyl to the urea carbonyl and the urea nitrogens.

[2] = Blood concentration after oral administration of 950 and AUDA-nBE, human pharmacokinetic profile; assay type: in vivo; conditions: see FIGS. 15-27
Method: FIG. 16 provides a sample preparation procedure for a pharmacokinetic study. A 5 μl whole blood sample was drawn into a capillary at a specific time point, each sample was extracted and anaylzed by LC/MS-MS. […] AUDA is the active metabolite of AUDA-nBE. […] 0.05 mg/kg. (B). 0.1 mg/kg. […] The compounds were administered at the same time in the same formulation. […] 21 mg (0.3 mg/kg) 950 and AUDA-nBE were orally administrated with starch. (B). 7 mg (0.1 mg/kg) formulated 950 and AUDA-NBE were taken with (HPMC, starch and lactose). (C). […] 950 with HPMC and Starch. (B). 950 in lactose and HPMC. […] HPMC forms a gel which slowly erodes; lactose enhances erosion at it moves through the gut and starch retards it. These formulations are combined, ball milled, and then placed in ‘0’ capsule and not compressed.

[3] = Pharmacokinetics after oral gavage in mice; assay type: in vivo, mouse; conditions: 5 mg/kg orally
Method: Animals. Male Swiss Webster mice, 6 weeks-old, were obtained from Charles River (Calif., USA). […] The body weight of animals used in all the experiments ranged from 28 g to 38 g. […] Administration and measurement. […] Then the samples were centrifuged at 6000 rpm for 5 min, and the ethyl acetate layer was dried under nitrogen. The residue was reconstituted in 25 μL of methanol, and aliquots (5 μL) were injected onto the LC-MS/MS system. Analysis. Pharmacokinetics analysis was performed using SigmaPlot software system (SPSS science, Chicago, Ill.). […] AUC=a/b Where: • C=the total blood concentration at time t • a=the extrapolated zero intercept b=the apparent first-order elimination rate constant

[4] = Metabolic stability in rat hepatic microsomes with NADPH generating system; assay type: in vitro ADME; conditions: rat, microsomes
Method: FIG. 6 is a graph illustrating the metabolic stabilities of 1-adamantyl-3-dodecyl urea (686) and 1-cyclohexyl-3-dodecyl urea (297) in rat hepatic microsomes. Microsomes were incubated with 1 μM 686 or 297 in the presence of an NADPH generating system. Data are expressed as mean ±SD of triplicate experiments.
To evaluate the metabolic stability of these inhibitors, the microsomal and NADPH dependent metabolism of a number of potent sEH inhibitors was evaluated. […] The first step in the metabolic transformation of the n-alkyl to n-alkanoic acid derivatives is an NAPDH dependent process carried out by cytochrome P450 dependent omega hydroxylation in rodent and human hepatic tissue preparations (see FIG. 8). When in vivo metabolism was evaluated, evidence for the beta-oxidation of the alkanoic acid derivatives was also found (see FIG. 9).

[5] = Table 2, […] enzyme, 5 min preincubation, pH 7.4, 30° C., means ± SD, read-out: IC50 (μM) Human sEH
[6] = Table 2, […] enzyme, 5 min preincubation, pH 7.4, 30° C., means ± SD

## CCOC(=O)C1=C(COCCN)NC(C)=C(C(=O)OC)C1c1ccccc1Cl (stereo not shown) [Norvasc]
[1]; Norvasc 5.0 mg per day (separate experiment), W/O 950 151, W/O Norvasc 145
  Systolic Avg.: 143
[1]; Norvasc 5.0 mg per day, W/O 950 97, W/O Norvasc 79
  Pulse Avg.: 89
[1]; Norvasc 5.0 mg per day, W/O 950 103, W/O Norvasc 100
  Diastolic Avg.: 95

## CCCCCOC(=O)CCCNC(=O)Nc1cccc(Cl)c1 [Compound 767, 1-(3-chlorophenyl)-3-(3-pentoxycarbonylpropyl)urea]
Human sEH; Table 3, […] enzyme, 5 min preincubation, pH 7.4, 30° C., means ± SD, read-out: IC50 (μM) Human sEH
  IC50: 2.1 ± 0.07 µM
Mouse sEH; Table 3, […] enzyme, 5 min preincubation, pH 7.4, 30° C., means ± SD
  IC50: 0.37 ± 0.04 µM
Mouse and human sEH; methylene carbon left versus right of the carbonyl
  better inhibition than 761: 20 fold

## CCCCCOC(=O)CCCNC(=O)NC1CCCCC1 [Compound 772, 1-Cyclohexyl-3-(3-pentoxycarbonylpropyl)urea]
Human sEH; [5]
  IC50: 1.02 ± 0.05 µM
Mouse sEH; [6]
  IC50: 0.05 ± 0.01 µM
Mouse and human sEH
  increase of inhibitor potency over the 3-chlorophenyl analog (767): 10 fold
Water solubility
  water solubility: increases their water solubility

## CCCCC/C=C\C[C@H]1O[C@H]1C/C=C\C/C=C\CCCC(=O)O [11,12-EET]
Rat sEH
  relative substrate turnover of the epoxy arachidonates: 8.1
  Relative EET Turnover: 8.1

## CCCCCOC(=O)CCCNC(=O)NC12CC3CC(CC(C3)C1)C2 [Compound 789]
Human sEH; [5]
  IC50: 0.17 ± 0.01 µM
Mouse sEH; [6]
  IC50: 0.05 ± 0.01 µM
Mouse and human sEH
  increase of inhibitor potency over the 3-chlorophenyl analog (767): 10 fold
Water solubility
  solubility relative to the corresponding cyclohexyl derivative: approximately 2 x
  water solubility: increases their water solubility

## COC(=O)CCCNC(=O)NC1CCCCC1 [Compound 774]
Human sEH
  IC50: 6.2 ± 0.5 µM
Mouse sEH; Table 1, 0.12 μM enzyme, 5 min preincubation, pH 7.4, 30° C., [S] = 40 μM, means ± SD of three experiments
  IC50: 0.33 ± 0.03 µM
Mouse and human sEH; for both enzymes
  fold higher activity than the esters of acetic and propanoic acids (549 and 635): 8-100 fold

## COCCOCCCCCNC(=O)NC12CC3CC(CC(C3)C1)C2 [Compound 908]
[2]
  pharmacokinetics: improved pharmacokinetics
Human sEH; Table 7, established protocols, read-out: IC50 (μM) Human sEH
  IC50: 0.16 ± 0.01 µM
Mouse sEH; Table 7, established protocols
  IC50: 0.05 ± 0.01 µM
Water solubility
  water solubility: increased water solubility

## CCCCC/C=C\C/C=C\C/C=C\CC1OC1CCCC(=O)O (stereo not shown) [5,6-EET]
Rat sEH
  Relative EET Turnover: 0.1

## CCCCCCCCCCCCNC(=O)NC12CC3CC(CC(C3)C1)C2 [Compound 686, 1-adamantyl-3-dodecylurea, reference compound]
Human sEH; [5]
  IC50: 0.1 ± 0.01 µM
Mouse sEH; Table 2, 0.12 μM enzyme, 5 min preincubation, pH 7.4, 30° C., means ± SD
  IC50: 0.05 ± 0.01 µM
[3]
  time to reach the maximum concentration: 2 h
Water solubility
  solubility relative to the corresponding cyclohexyl derivative: approximately 2 x

## CCCCCCCCCCNC(=O)NC12CC3CC(CC(C3)C1)C2 [Compound 790, reference compound]
Human sEH; [5]
  IC50: 0.1 ± 0.01 µM
Mouse sEH; [6]
  IC50: 0.05 ± 0.01 µM
Water solubility
  solubility relative to the corresponding cyclohexyl derivative: approximately 2 x

## CCCCC/C=C\C/C=C\CC1OC1C/C=C\CCCC(=O)O (stereo not shown) [8,9-EET]
Rat sEH
  relative substrate turnover of the epoxy arachidonates: 0.1
  Relative EET Turnover: 1

## CCCCCC1OC1C/C=C\C/C=C\C/C=C\CCCC(=O)O (stereo not shown) [14,15-EET]
Rat sEH
  relative substrate turnover of the epoxy arachidonates: 14.3
  Relative EET Turnover: 14.3

## O=C(NC1CCCCC1)NC12CC3CC(CC(C3)C1)C2 [Compound 192, 1-adamantyl-3-cyclohexylurea]
[4]
  metabolic stability in microsomal preparations: improved stability
